Reference: article PMC6218659, “Structures of DPAGT1 Explain Glycosylation Disease Mechanisms and Advance TB Antibiotic Design” (Cell, 2018)
Values after ≈ are worked out from the molar mass of the structure shown. Counter-ions that a name gives are not always drawn. Like-named read-outs stand apart in the source and are kept apart here.

Experiments:
[1] = tested on: B. subtilis EC1524; assay: Micro-broth dilution and drop plate antimicrobial susceptibility test; assay type: cell-based, Bacillus subtilis; details: for Relative Therapeutic Index (RTI), B. subtilis EC1524: minimal lethal dose / MIC, 800 μg mL-1 used for >400
Experimental: (§1) In a sterile 96-well plate, serial dilutions were made with the test substance to final volume of 50 μl. Inoculum was then prepared in Mueller-Hinton broth to 0.5 McFarland and diluted before adding 50 μl to the well to make ∼1x10^5 CFU/ml. The culture plate was incubated at 35 °C for 20-24 hrs. A positive growth control and sterility wells were also prepared along with the culture wells. Absorbance at OD600 was taken using BMG Labtech SPECTROstar Omega spectrophotometer. MIC is determined by the lowest concentration without growth. IC50 is determined from plotting a dose-response curve, see Data Analysis below. To determine the MBC, using a multi-channel pipette, 1 μl of culture broth was taken from the same 96-well microdilution growth plate and carefully inoculated on surface of MH agar plate. The plate is then incubated for additional 20 hrs. at 35 °C. The MBC value is the lowest concentration without observed growth on the agar.

[2] = tested on: B. cereus ATCC11778; assay: as above; assay type: cell-based, Bacillus cereus; details: for Relative Therapeutic Index (RTI), B. cereus NRRL 11778: minimal lethal dose / MIC, 800 μg mL-1 used for >400
Experimental: as §1

[3] = tested on: Raji cells; assay: Cell proliferation assay (MTS); assay type: cell-based, human; details: 24 hrs
Experimental: (§2) In sterile 96-well plate, each well was seeded with ∼1x10^5 cells. The cells are then grown confluent overnight in 100 μl DMEM with 10% FBS. The medium is replenished with DMEM with 2% FBS and added vehicle control or test substance the next day. For test substance in methanol, stock was added to 25 μl of DMEM with 2% FBS or PBS and placed in the laminar flow hood to let the methanol evaporate (about 1-3 hrs). Once the methanol has evaporated, DMEM with 2% FBS was added to final volume of 100 μl of desired test concentration. […] Cells are grown for additional 24 hrs. The cell viability was determined by using Promega CellTiter 96^© AQueous One Solution Cell Proliferation Assay (3-(4,5-dimethylthiazol-2-yl)-5-(3-carboxymethoxyphenyl)-2-(4-sulfophenyl)-2H-tetrazolium, inner salt; MTS) System following the manufacture protocol.

[4] = tested on: HepG2 cells; assay: Cell proliferation assay (MTS); assay type: cell-based, human; details: for LD50 values, HepG2: MTS cell proliferation assay, 24 hrs, highest concentration 400 µg mL-1; for Minimal Lethal Dose, HepG2: serial 2-fold dilutions (Table S6)
Experimental: as §2

[5] = tested on: HEK293 cells; assay: Cell proliferation assay (MTS); assay type: cell-based, human; details: for LD50 values, HEK293: MTS cell proliferation assay, 24 hrs, highest concentration 400 µg mL-1; for Minimal Lethal Dose, HEK 293: serial 2-fold dilutions (Table S6)
Experimental: as §2

[6] = tested on: Mtb H37Rv ATCC27294; assay: Minimum inhibitory concentrations testing against Mtb; assay type: cell-based, Mycobacterium tuberculosis; details: for MIC: Mycobacterium tuberculosis, 168 h
[7] = tested on: Mtb-infected J774A.1 macrophages; assay: Efficacy against Mtb growing in infected macrophages; details: J774A.1 macrophages treated 3 or 7 days
[8] = in vivo; set-up: species or system C57BL/6 mice; details: ip; for concentration at 0.5 h / concentration at 1 h / concentration at 2 h / concentration at 4 h / concentration at 6 h / concentration at 24 h: female, C57BL/6, mouse, 30 mg/kg
Experimental: Test compound was dosed to sixteen female C57BL/6 mice by intraperitoneal injection in a volume of 0.6 ml. To reconstitute TUN-8,8 for intraperitoneal injections, compound (1 mg) was dissolved in 0.1 ml ethanol and subsequently diluted with 0.9 ml 1% Tween 80 in Dulbecco’s PBS. The mixture was warmed to 37 °C, vortexed and sonicated followed by sterile filtration through a 0.2 μm filter. Blood samples were taken from the tail vein of the mice at pre-determined time intervals post-dose, and serum collected after 4 h on ice. 30 μl serum samples were prepared with 30 μl internal standard and 20 μl of water or spiked standard along with 240 μl of ACN/MeOH mix (3:1) to precipitate proteins. Samples were centrifuged 13 krpm for 5 minutes and 2 μl injected into LC-MS/MS system. Calibration standard was prepared 1 mg of TUN-8,8 to 1 ml DMSO and successively diluted by a factor of 3. TUN-9,9 IS solution was prepared to 200 μg/ml in DMSO.
LC-MS/MS was performed on an Agilent 1290 Infinity HPLC coupled to an Agilent 6460C triple quadrupole mass selective detector with electrospray ionization in positive mode. TUN-8,8 and TUN-9,9 (as an internal standard) were detected using their M+H precursors ions with 514.1 and 528.2 Da/z product ions produced in a collision cell using collision energy 12 V. Capillary voltage was 3000 V and ESI used jet stream technology with sheath voltage 2000 V. The column was an Agilent C18 Poroshell 120 2.7 μm with dimensions 2.1 x 50 mm at 40 °C. Mobile phase was water (A) and acetonitrile (B) each with 0.1% (v/v) formic acid. […] Water for LC-MS/MS was purified by a Barnstead Diamond system to 18.2 MΩ-cm resistivity. Acetonitrile (ACN) and Methanol were HPLC grade from Fisher (Fairlawn NJ, USA) and formic acid was supplied from EMD Millipore Corp (Darmstadt, Germany). DMSO was ACS grade manufactured by Amresco LLC in Solon Ohio USA.

[9] = Bacillus subtilis, EC1524, read-out: Minimal Inhibitory Concentration, B. subtilis EC1524
[10] = Bacillus cereus, ATCC 11778 / NRRL11778, read-out: Minimal Inhibitory Concentration, B. cereus NRRL 11778

For `N[C@H]1[C@H](O[C@H]2O[C@H](CO)[C@@H](O)[C@H](O)[C@H]2N)O[C@H](C[C@@H](O)[C@H]2O[C@@H](n3ccc(=O)[nH]c3=O)[C@H](O)[C@@H]2O)[C@H](O)[C@@H]1O` [TUN, α-D-glucosamine-(1”-11')-tunicamyl uracil dihydrochloride], the MIC [1, 9] was 100 µg/mL, the “Relative Therapeutic Index (RTI), B. subtilis EC1524” value [1] was 8 and the MIC [2, 10] was 100 µg/mL. The “Relative Therapeutic Index (RTI), B. cereus NRRL 11778” value [2] was 8, the “LD50 values, Raji” value [3] was 698.3 µg/mL and the “LD50 values, HepG2” value [4] was “N/A (N/A = not available. No or low cytotoxicity observed at highest, saturating concentration tested (400 µg mL-1))”. The “Minimal Lethal Dose, HepG2” value [4] was greater than 400 µg/mL, the “LD50 values, HEK293” value [5] was “N/A (N/A = not available. No or low cytotoxicity observed at highest, saturating concentration tested (400 µg mL-1))” and the “Minimal Lethal Dose, HEK 293” value [5] was greater than 400 µg/mL. For the same molecule, the MIC ([6]; 1-week in 7H9/ADC/Tw (Table S6), read-out: Minimal Inhibitory Concentration, Mtb H37RV a) was greater than 60 µg/mL, the MIC ([6]; 1-week in GAST/Fe (Table S6), read-out: Minimal Inhibitory Concentration, Mtb H37RV b) was greater than 60 µg/mL and the MIC ([6]; Mtb H37Rv, minimal growth medium, read-out: 1-week MIC in GAST/Fe) was greater than 60 µg/mL. It also gave an MIC ([6]; Mtb H37Rv, rich 7H9-based growth medium, read-out: 1-week MIC in 7H9/ADC/Tw) greater than 60 µg/mL.
With `CCCCCCCC(=O)N[C@H]1[C@H](O[C@H]2O[C@H](CO)[C@@H](O)[C@H](O)[C@H]2NC(=O)CCCCCCC)O[C@H](C[C@@H](O)[C@H]2O[C@@H](n3ccc(=O)[nH]c3=O)[C@H](O)[C@@H]2O)[C@H](O)[C@@H]1O` [TUN-8,8, Di-N-octanoyl-tunicamycin] the “reduction of intracellular bacterial burdens” value ([7]; 1 × MIC) was 1 logs, the “reduction of intracellular bacterial burdens” value ([7]; 10 × MIC) was 2 logs and the IC50 ([1]; Bacillus subtilis, EC1524) was 0.2 µg/mL (≈ 0.244 µM). The MBC ([1]; Bacillus subtilis, EC1524) was greater than 0.78 µg/mL, the MIC ([1]; Bacillus subtilis, EC1524) was 0.65 ± 0.22 µg/mL (≈ 0.794 µM) and the MIC [1, 9] was 0.78 µg/mL (≈ 0.952 µM). For the same molecule, the “Relative Therapeutic Index (RTI), B. subtilis EC1524” value [1] was 1026, the IC50 ([2]; Bacillus cereus, ATCC11778) was 0.78 µg/mL (≈ 0.952 µM) and the MBC ([2]; Bacillus cereus, ATCC11778) was greater than 50 µg/mL. For the same molecule, the MIC ([2]; Bacillus cereus, ATCC11778) was 5.2 ± 1.8 µg/mL (≈ 6.35 µM), the MIC [2, 10] was 6.25 µg/mL (≈ 7.63 µM) and the “Relative Therapeutic Index (RTI), B. cereus NRRL 11778” value [2] was 128. For the same molecule, the “LD50 values, Raji” value [3] was 211.05 ± 125.94 µg/mL, the “LD50 values, HepG2” value [4] was “N/A (N/A = not available. No or low cytotoxicity observed at highest, saturating concentration tested (400 µg mL-1))” and the “Minimal Lethal Dose, HepG2” value [4] was greater than 400 µg/mL. The “LD50 values, HEK293” value [5] was “N/A (N/A = not available. No or low cytotoxicity observed at highest, saturating concentration tested (400 µg mL-1))”, the “Minimal Lethal Dose, HEK 293” value [5] was greater than 400 µg/mL and the concentration at 0.5 h ([8]; first series) was 42.7 ± 28.3 µM. The concentration at 1 h ([8]; first series) was 34.6 ± 7.4 µM, the concentration at 2 h ([8]; first series) was 23.7 ± 9.25 µM and the concentration at 4 h ([8]; first series) was 1.32 ± 1.09 µM. For the same molecule, the concentration at 6 h ([8]; first series) was 0.21 ± 0.12 µM, the concentration at 24 h ([8]; first series) was 0.06 ± 0.08 µM and the concentration at 0.5 h ([8]; second series) was 52.1 ± 34.5 µM. For the same molecule, the concentration at 1 h ([8]; second series) was 42.3 ± 9.04 µM, the concentration at 2 h ([8]; second series) was 28.9 ± 11.3 µM and the concentration at 4 h ([8]; second series) was 1.61 ± 1.33 µM. For the same molecule, the concentration at 6 h ([8]; second series) was 0.26 ± 0.15 µM, the concentration at 24 h ([8]; second series) was 0.07 ± 0.1 µM and the bioavailability ([8]; mouse) was “good bioavailability”. The “Relative Therapeutic Index (RTI), Mtb H37RV a” value [6] was 1140, the MIC ([6]; read-out: 1-week MIC in 7H9/ADC/Tw) was 0.7 ± 3.3 µg/mL (≈ 0.855 µM) and the MIC ([6]; read-out: 1-week MIC in GAST/Fe) was 0.14 ± 0.1 µg/mL (≈ 0.171 µM). It also gave an MIC ([6]; read-out: Minimal Inhibitory Concentration, Mtb H37RV a) of 0.7 µg/mL (≈ 0.855 µM) and an MIC ([6]; read-out: Minimal Inhibitory Concentration, Mtb H37RV b) of 0.14 µg/mL (≈ 0.171 µM).
